# Inconclusive results are not listed. Calls of active or inactive are those of the source. The rule behind the calls is not given here.
# Biological target: Histone acetyltransferase RTT109 (Candida albicans (strain SC5314 / ATCC MYA-2876)) (UniProt Q5AAJ8)
# Experiment: C. albicans Rtt109 HAT inhibition curves – biochemical, cherry-picked hits, plate reader, dose response (AID 588764);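 for activity change, negative = inhibition: 0% = neutral control wells and -100% = no enzyme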
# Details: Rtt109/Vps75 HAT activity
# Chain of Histone acetyltransferase RTT109 (Candida albicans (strain SC5314 / ATCC MYA-2876)) (Q5AAJ8 whole entry, looked up): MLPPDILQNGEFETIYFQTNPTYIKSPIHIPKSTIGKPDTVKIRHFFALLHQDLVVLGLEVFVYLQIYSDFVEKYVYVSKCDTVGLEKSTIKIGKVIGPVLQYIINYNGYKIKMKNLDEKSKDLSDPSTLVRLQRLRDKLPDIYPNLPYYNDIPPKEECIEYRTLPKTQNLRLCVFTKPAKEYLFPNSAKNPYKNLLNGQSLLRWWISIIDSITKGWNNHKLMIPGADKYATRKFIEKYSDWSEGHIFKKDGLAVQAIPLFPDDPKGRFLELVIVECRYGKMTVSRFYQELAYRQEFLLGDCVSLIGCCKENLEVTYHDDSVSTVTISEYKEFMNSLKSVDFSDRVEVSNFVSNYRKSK
row,AC50 [µM],SMILES
1,5.91,CCOC(=O)/C=C/C(=O)Nc1cccc([N+](=O)[O-])c1
2,6.08,Oc1cc2c(cc1O)C1c3ccc(O)c(O)c3OCC1(O)C2 (centres undefined)
3,15,O=C(NCc1ccccc1)c1nc(S(=O)(=O)Cc2ccccc2)ncc1Cl

# Same assay, conditions: Rtt109/Vps75 HAT activity, at 19.5 µM (top of the series)
row,"activity change, negative = inhibition",SMILES
1,inactive,NC(N)=N/N=C/c1ccc(OCc2ccccc2)c(OCc2ccccc2)c1
2,inactive,COC(=O)c1cccc(Oc2cccc(Cl)n2)c1
3,inactive,O=C(Nc1ccc(Oc2cccnc2)cc1)C1CCN(Cc2cc(Cl)ccc2O)CC1
4,inactive,C=CCOc1ccc(/C(O)=C2\C(=O)C(=O)N(CCOC)C2c2cccnc2)cc1 (centres undefined)
5,inactive,O=C(CNC(=O)c1cccc(Br)c1)N/N=C/c1cccs1
6,inactive,COc1ccc(-c2nc(-c3cccs3)no2)cc1
7,inactive,O=C1Cc2ccccc2Sc2c(OCCN3CCCCC3)cccc21

# The remaining lines, values behind:
row,SMILES,"activity change, negative = inhibition"
1,CCc1nnc(NC(=O)CN2C(=O)c3ccccc3C2=O)s1,inactive
2,O=C(C[n+]1cc(-c2ccc(Cl)c(Cl)c2)n2c1CCC2)N1c2ccccc2Sc2ccccc21,inactive
3,CCOC(=O)C1=C(C)NC(C)=C(C(=O)OCC)C1C(=O)OCC(=O)NCCc1ccc(S(N)(=O)=O)cc1,inactive
4,Cc1nc2ccccc2n1CC(=O)NC1CCCC1,inactive
5,CC1(C)C2CCC1(C)C(OCC[N+](C)(C)CC(=O)OC1CCCCC1)C2 (centres undefined),inactive
6,CC(=O)/C(=N/Nc1ccccc1)Sc1nnc(C(O)c2ccccc2)n1-c1ccccc1 (centres undefined),inactive
7,CC(C)C[C@@H]1CN=C(N)N1C[C@@H]1CCCN1C[C@H](C)N1C[C@@H](Cc2ccccc2)N(CCc2ccc(Cl)c(Cl)c2)C1=N,inactive
8,O=S(=O)(Nc1ccc(-c2nnc(SCc3ccc(Cl)cc3)o2)cc1)c1ccccc1,inactive
9,COc1ccc(CC(NC(C)=O)C(=O)NC2CCN(c3nc(C)cc(C)c3C#N)CC2)cc1 (centres undefined),inactive
